Read-outs that look alike come from different tables or passages of the source.
How the values were obtained:
[1] = 5-FU plasma pharmacokinetics; assay type: in vivo, human; details: for AUC / Cmax / Css: plasma 5-FU, mean ± SD
[2] = test system: patients with refractory colorectal cancer
[3] = Vorinostat serum pharmacokinetics; assay type: in vivo, human; details: for AUC / Tmax / half-life / Cmax: human, po
[4] = read-out: Cmax of vorinostat; single-agent 900 mg/m^2 i.v. over 2 hours x 3 days every 3 weeks; ref [26]; cited from earlier work
[5] = test system: thymidylate synthase (TS); test: TS tumor expression by immunohistochemistry in paired liver metastasis biopsies; assay type: in vivo, human; details: for Change in TS staining intensity (IHC): day 4 vs pre-treatment
[6] = test system: metastatic colorectal cancer; test: Antitumor response by CT; assay type: in vivo, human; details: 21 assessable patients, vorinostat + FOLFOX
[7] = test system: patients with refractory colorectal cancer; test: Toxicity assessment per NCI CTC 3.0; assay type: in vivo, human
[8] = test system: thymidylate synthase (TS); details: ref [28], [29], cited from earlier work
[9] = test system: thymidylate synthase (TS); test: TS tumor gene expression by RT-PCR in paired biopsies; assay type: in vivo, human
[10] = maintenance dose 2400 mg/m^2, vorinostat 100 mg
[11] = maintenance dose 2400 mg/m^2, vorinostat 200 mg
[12] = maintenance dose 2400 mg/m^2, vorinostat 300 mg
[13] = maintenance dose 2400 mg/m^2, vorinostat 400 mg
[14] = serum, 100 mg, vorinostat 100 mg PO BID, Day 1, serum, mean
[15] = serum, 200 mg, vorinostat 200 mg PO BID, Day 5 (with FOLFOX), serum, mean
[16] = serum, 300 mg, vorinostat 300 mg PO BID, Day 1, serum, mean
[17] = serum, 300 mg, vorinostat 300 mg PO BID, Day 5 (with FOLFOX), serum, mean
[18] = serum, 400 mg, vorinostat 400 mg PO BID, Day 1, serum, mean
[19] = serum, 400 mg, vorinostat 400 mg PO BID, Day 5 (with FOLFOX), serum, mean
[20] = DL4 vorinostat 400 mg BID+FOLFOX, 4 patients, all cycles
[21] = all dose levels, 21 patients, vorinostat + FOLFOX

O=c1[nH]cc(F)c(=O)[nH]1 [5-FU, 5-Fluorouracil]
AUC [1, 10]: 15.3 ± 5.7 ηg*hr/mL | Cmax [1, 10]: 5.03 ± 4.39 ηg/mL | Css [1, 10]: 0.287 ± 0.044 ηg/mL | AUC [1, 11]: 24 ± 9.11 ηg*hr/mL | Cmax [1, 11]: 13.1 ± 7.96 ηg/mL | Css [1, 11]: 0.274 ± 0.045 ηg/mL | AUC [1, 12]: 68.7 ± 88.1 ηg*hr/mL | Cmax [1, 12]: 24.5 ± 14.5 ηg/mL | Css [1, 12]: 0.396 ± 0.159 ηg/mL | AUC [1, 13]: 46.7 ± 10.6 ηg*hr/mL | Cmax [1, 13]: 26.8 ± 11.4 ηg/mL | Css [1, 13]: 0.432 ± 0.077 ηg/mL | median 5-FU Css ([1]; vorinostat 100 mg BID dose group): 3000 ng/mL | Median 5-FU AUC ([1]; vorinostat 100 mg dose group): 14000 ng·h/mL | median 5-FU Css ([1]; vorinostat 200 mg BID dose group): 16000 ng/mL | Median 5-FU AUC ([1]; vorinostat 200 mg dose group): 26000 ng·h/mL | median 5-FU Css ([1]; vorinostat 300 mg BID dose group): 20000 ng/mL | Median 5-FU AUC ([1]; vorinostat 300 mg dose group): 35000 ng·h/mL | median 5-FU Css ([1]; vorinostat 400 mg BID dose group): 23000 ng/mL | Median 5-FU AUC ([1]; vorinostat 400 mg dose group): 44000 ng·h/mL

O=C(CCCCCCC(=O)Nc1ccccc1)NO [vorinostat, Suberoylanilide Hydroxamic Acid]
Patients with DLT ([2]; DL1 vorinostat 100 mg PO BID + FOLFOX, 3 evaluable patients, cycle 1): None | Patients with DLT ([2]; DL2 vorinostat 200 mg PO BID + FOLFOX, 3 patients, cycle 1): without any DLT | Patients with DLT (fatigue, anorexia, dehydration) ([2]; DL3 vorinostat 300 mg PO BID + FOLFOX, evaluable patients, cycle 1): One of 10 | Tolerability of dose-level ([2]; DL4 vorinostat 400 mg PO BID + FOLFOX): intolerable | Patients with DLT (grade 3 fatigue; grade 3 diarrhea in one) ([2]; DL4 vorinostat 400 mg PO BID + FOLFOX, cycle 1): 2 of 4 | MTD of vorinostat in combination with FOLFOX ([2]; x 1 week every two weeks, FOLFOX on days 4 and 5): 300 mg PO BID | AUC [3, 14]: 2.5 µM·h | Tmax [3, 14]: 2.4 h | half-life ([3]; serum, 100 mg, t1/2, vorinostat 100 mg PO BID, Day 1, serum, mean): 1.5 h | AUC ([3]; serum, 200 mg, vorinostat 200 mg PO BID, Day 1, serum, mean): 1.9 µM·h | AUC [3, 15]: 3.3 µM·h | Cmax ([3]; serum, 200 mg, Cmax, vorinostat 200 mg PO BID, Day 1, serum, mean): 816 nM | Cmax ([3]; serum, 200 mg, Cmax, vorinostat 200 mg PO BID, Day 5 (with FOLFOX), serum, mean): 894 nM | Tmax [3, 15]: 2.7 h | half-life ([3]; serum, 200 mg, t1/2, vorinostat 200 mg PO BID, Day 1, serum, mean): 1.2 h | AUC [3, 16]: 4.4 µM·h | AUC [3, 17]: 6.8 µM·h | Cmax ([3]; serum, 300 mg, Cmax, vorinostat 300 mg PO BID, Day 1, serum, mean): 1460 nM | Cmax ([3]; serum, 300 mg, Cmax, vorinostat 300 mg PO BID, Day 5 (with FOLFOX), serum, mean): 950 nM | Tmax [3, 16]: 1.6 h | Tmax [3, 17]: 2.4 h | half-life ([3]; serum, 300 mg, t1/2, vorinostat 300 mg PO BID, Day 1, serum, mean): 2.3 h | half-life ([3]; serum, 300 mg, t1/2, vorinostat 300 mg PO BID, Day 5 (with FOLFOX), serum, mean): 2.3 h | AUC [3, 18]: 4.5 µM·h | AUC [3, 19]: 7.4 µM·h | Cmax ([3]; serum, 400 mg, Cmax, vorinostat 400 mg PO BID, Day 1, serum, mean): 1510 nM | Cmax ([3]; serum, 400 mg, Cmax, vorinostat 400 mg PO BID, Day 5 (with FOLFOX), serum, mean): 1480 nM | Tmax [3, 18]: 1.9 h | Tmax [3, 19]: 2.8 h | half-life ([3]; serum, 400 mg, t1/2, vorinostat 400 mg PO BID, Day 1, serum, mean): 3.7 h | half-life ([3]; serum, 400 mg, t1/2, vorinostat 400 mg PO BID, Day 5 (with FOLFOX), serum, mean): 2.2 h | Cmax ([3]; serum, Cmax of vorinostat, at all dose levels (100-400 mg PO BID)): < 2000 nM | CLapp ([3]; vorinostat 100 mg PO BID, Day 1, serum, mean): 189 L/h | CLapp ([3]; vorinostat 100 mg PO BID, Day 5 (with FOLFOX), serum, mean): 202 L/h | CLapp ([3]; vorinostat 200 mg PO BID, Day 1, serum, mean): 400 L/h | CLapp ([3]; vorinostat 200 mg PO BID, Day 5 (with FOLFOX), serum, mean): 231 L/h | CLapp ([3]; vorinostat 300 mg PO BID, Day 1, serum, mean): 285 L/h | CLapp ([3]; vorinostat 300 mg PO BID, Day 5 (with FOLFOX), serum, mean): 225 L/h | CLapp ([3]; vorinostat 400 mg PO BID, Day 1, serum, mean): 345 L/h | CLapp ([3]; vorinostat 400 mg PO BID, Day 5 (with FOLFOX), serum, mean): 211 L/h | Change in vorinostat Clapp, day 5 compared to day 1 ([3]; within patients, 14 patients, p=0.003): significant decrease | Change in vorinostat AUC, day 5 compared to day 1 ([3]; within patients, 14 patients, p=0.005): significant increase | Change in vorinostat Tmax, day 5 compared to day 1 ([3]; within patients, 19 patients, p=0.02): statistically significant increase | Cmax [4]: > 20000 nM | Patients with no change in TS staining pattern (IHC) ([5]; 6 paired samples, pre-treatment vs 4th day of vorinostat, cycle 1): 4 | Change in TS staining intensity (IHC) ([5]; one patient at DL1 (vorinostat 100 mg PO BID)): decreased intensity from strong to weak | Change in TS staining intensity (IHC) ([5]; one patient at DL4 (vorinostat 400 mg PO BID)): increase in intensity from weak to strong | Objective response [6]: No patient developed an objective response | Patients with confirmed stable disease [6]: 5 | Patients with stable disease on 2-month staging CT scan [6]: Eleven | Neutropenia G3 (patients) [7, 20]: 2 | Thrombocytopenia G4 (patients) [7, 20]: 2 | Grade 3-4 thrombocytopenia (patients) [7, 21]: 5 | Grade 3-4 thrombocytopenia (share of patients) [7, 21]: 24% | Down-regulation of TS expression ([8]; in vitro and in vivo models, Q-PCR analysis): ≤ 100 fold | Vorinostat concentration required for effective TS down-regulation ([8]; pre-clinical studies, 24 hours of vorinostat exposure): ≥ 5 µM | Patients without any change in TS expression (RT-PCR) ([9]; 6 patients with paired biopsies): four | Patients with down-regulation of TS (RT-PCR) ([9]; paired tumor biopsies, day 4 of vorinostat vs pre-treatment (DL1 and DL4)): 2 of 6 | Decrease in TS gene expression ([9]; patient at DL1 (vorinostat 100 mg PO BID)): ~50% | TS gene expression relative to β-actin ([9]; patient at DL1, before vorinostat): 0.92 | TS gene expression relative to β-actin ([9]; patient at DL1, following vorinostat treatment): 0.45 | Decrease in TS gene expression ([9]; patient at DL4 (vorinostat 400 mg PO BID)): approximately 33% | TS gene expression relative to β-actin ([9]; patient at DL4, before vorinostat): 2.27 | TS gene expression relative to β-actin ([9]; patient at DL4, following vorinostat treatment): 1.58
